Source: paper PMC7462607 (eLife, 2020)
Values joined by “and” are separate entries in the source; they are usually repeats but may differ in a detail not shown here. Identical values can stand only once.

Columns and labels:
FLAG-DDB1/CDK12KD/CCNKΔC = target: T1, FLAG-DDB1/CDK12KD/CCNKΔC (Homo sapiens, UniProt Q9NYV4); assay: FLAG-DDB1:CDK12KD/CCNKΔC pull down assay; format: binding
T1 construct: Human CDK12KD (residues 715–1052); 6xHis (PreScission site) (N, cleaved yes); made in house; host or cells: Sf9 or High Five (CDK12KD/CCNKΔC, co-infected with yeast CAK1); 293F (FLAG-Avi-DDB1)
Procedure: FLAG-Avi-DDB1 (18.2 µg) was mixed with CDK12KD/CCNKΔC (10 µg) at 1:1 molar ratio in 500 μL of pulldown assay buffer containing 50 mM HEPES, pH 7.5, 300 mM NaCl, 0.5 mM TCEP. The protein mix was then supplemented with DMSO or HQ461. After 30 min of incubation on ice, the protein-compound mix was incubated with anti-FLAG M2 affinity gel for another 30 min on a rotator at 4 °C. Protein-bound beads were washed three times with the pulldown assay buffer and bound proteins were eluted with 0.2 mg/mL FLAG peptide. Eluted proteins were analyzed by SDS-PAGE followed by coomassie blue staining.

[1] = system: ARE-luc2P activity (NRF2); assay: ARE-luc2P reporter assay (NRF2 activity); format: cell-based; details: Homo sapiens; A549 ARE-luc2P reporter cells
Procedure: A549 cells were transiently transfected with the plasmid pGL4.37 (Promega, Madison, USA) and selected with 500 µg/ml of hygromycin to obtain a stable cell line harboring the ARE-luc2P reporter. TK-luc2P was cloned into the pLVX-IRE-Puro backbone by replacing its CMV promoter and multiple cloning site with HSV-TK promoter fused to luc2P. The resulting pLVX-TK-luc2P-IRES-Puro plasmid was packaged into lentivirus to transduce A549 cells. Stable cell lines were obtained by selection of transduced cells with 2 µg/ml of puromycin.
A screening library with 65,790 small molecules (Life Chemicals, Niagara-on-the-Lake, Canada) were used in primary screening. The screening procedures were as follows. Seven hundred A549 ARE-luc2P cells in 50 µL of medium were plated per well in 384-well flat clear bottom white polystyrene TC-treated microplates (Corning, Corning, USA) and allowed to attach to plates overnight. […] Twelve hours later, ARE-luc2P activities were measured with Bright-Glo luciferase assay system (Promega, Madison, USA) following vendor instructions. Luminescence was measured on a EnVision multimode plate reader (PerkinElmer, Waltham, USA). Luminescence data on each plate was Z-score normalized using the equation Z=x−μ/σ , where x is the luminescence value of a well, µ is the mean and σ is the standard deviation of all values on one plate. […]

[2] = target: T2, FLAG-Avi-DDB1 and His-CDK12KD G731R/His-CCNKΔC (Homo sapiens, UniProt Q9NYV4, G731R); assay: AlphaScreen assay, G731R; format: binding; details: for AlphaScreen: G731R, raw signal
T2 construct: Human CDK12KD (residues 715–1052); made in house; host or cells: Sf9 or High Five (CDK12KD/CCNKΔC, co-infected with yeast CAK1); 293F with BirA (FLAG-Avi-DDB1)
Procedure: Biotinylated FLAG-Avi-DDB1 (3 µM) and 6xHis-CDK12KD/6xHis-CCNKΔC (WT or G731E/R mutants) (3 µM) were mixed in an assay buffer (50 mM HEPES, pH7.5, 300 mM NaCl, 0.5 mM TCEP, 0.1% NP-40, 0.1% BSA) and a serial dilution of HQ461.The protein-compound mix was transferred to 384-well plates (Corning, Corning, USA); 15 μL per well. After a 1 hr room temperature incubation, 10 µL of nickel chelate (Ni-NTA) acceptor beads (PerkinElmer, Waltham, USA, Waltham, USA, 6760619C) (1:100 diluted with assay buffer) was added per well. After incubation in the dark for 1 hr at room temperature, 10 μL of streptavidin donor beads (PerkinElmer, Waltham, USA, 6760619C) (1:100 diluted in assay buffer) was added per well. After another 1 hr incubation, AlphaScreen signal was measured on the EnVision multimode plate reader (PerkinElmer, Waltham, USA). For THZ531 competition, FLAG-Avi-DDB1, 6xHis-CDK12KD/6xHis-CCNKΔC mix was preincubated with 5 μM of THZ531 for 30 min on ice followed by the procedures described above.

[3] = target: T3, CDK13 kinase domain/CCNK-3xHA (Homo sapiens, UniProt Q14004); assay: Co-expression of 3xFLAG-CDK13 kinase domain with CCNK-3xHA; format: cell-based; details: 293T, HQ461 8 hr; not with G709E or G709R
T3 construct: ORFs encoding residues 715–1052 of CDK12 and residues 693–1030 of CDK13; expressed in transfected cells; host or cells: 293T
Procedure: ORFs encoding residues 715–1052 of CDK12 and residues 693–1030 of CDK13 were cloned into a pCDNA3.1-N-3xFLAG vector. For setting up cells for co-transfection, 0.6 million 293 T cells were seeded per well in 6-well tissue-culture plates and allowed to attach to plates overnight. These cells were then transfected with 50 ng of pCDNA3.1-3xFLAG-CDK12/13 kinase domain, 50 ng of pCDNA3.1-CCNK-3xHA, and 400 ng of the empty pCDNA3.1 vector. Twenty-four hours post transfection, cells were treated with HQ461 for 8 hr, and lysates were collected for western blotting with anti-FLAG and anti-HA antibodies.

T2 sequence (Q9NYV4 715-1052 G731R limits assumed): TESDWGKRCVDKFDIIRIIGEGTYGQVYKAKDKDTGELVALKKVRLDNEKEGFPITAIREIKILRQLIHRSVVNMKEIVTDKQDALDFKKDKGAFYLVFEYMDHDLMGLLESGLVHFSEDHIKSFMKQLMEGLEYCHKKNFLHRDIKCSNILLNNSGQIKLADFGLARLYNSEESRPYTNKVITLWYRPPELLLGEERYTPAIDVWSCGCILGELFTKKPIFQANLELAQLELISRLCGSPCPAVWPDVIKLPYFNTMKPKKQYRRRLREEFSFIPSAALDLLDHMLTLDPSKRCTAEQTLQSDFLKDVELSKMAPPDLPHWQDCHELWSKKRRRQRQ
T2 sequence (O75909 11-267 partner limits assumed): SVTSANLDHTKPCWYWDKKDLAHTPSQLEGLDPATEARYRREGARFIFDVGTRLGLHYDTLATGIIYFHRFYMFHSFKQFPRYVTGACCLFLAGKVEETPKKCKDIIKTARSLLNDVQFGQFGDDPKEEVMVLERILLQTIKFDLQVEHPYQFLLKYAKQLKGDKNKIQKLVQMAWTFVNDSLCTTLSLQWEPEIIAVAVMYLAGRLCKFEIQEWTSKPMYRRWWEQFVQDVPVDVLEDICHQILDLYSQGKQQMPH
T3 sequence (O75909 whole entry, the tested form may be a part): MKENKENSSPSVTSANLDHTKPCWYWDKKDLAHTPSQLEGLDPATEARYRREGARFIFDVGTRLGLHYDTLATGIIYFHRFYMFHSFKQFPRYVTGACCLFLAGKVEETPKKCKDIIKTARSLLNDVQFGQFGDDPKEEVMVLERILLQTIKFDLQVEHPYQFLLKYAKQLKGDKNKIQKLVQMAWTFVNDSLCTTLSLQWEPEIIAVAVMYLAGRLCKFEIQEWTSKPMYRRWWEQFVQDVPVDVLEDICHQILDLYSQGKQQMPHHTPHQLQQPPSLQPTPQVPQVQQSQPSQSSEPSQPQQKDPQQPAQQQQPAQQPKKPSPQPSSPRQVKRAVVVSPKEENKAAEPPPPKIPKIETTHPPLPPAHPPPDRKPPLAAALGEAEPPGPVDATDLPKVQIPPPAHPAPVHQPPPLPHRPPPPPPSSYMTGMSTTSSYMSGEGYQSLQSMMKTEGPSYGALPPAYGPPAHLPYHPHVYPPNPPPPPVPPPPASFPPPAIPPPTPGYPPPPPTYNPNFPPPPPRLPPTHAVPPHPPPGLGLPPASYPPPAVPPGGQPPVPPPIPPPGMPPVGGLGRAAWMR
T3 sequence (Q14004 693-1030): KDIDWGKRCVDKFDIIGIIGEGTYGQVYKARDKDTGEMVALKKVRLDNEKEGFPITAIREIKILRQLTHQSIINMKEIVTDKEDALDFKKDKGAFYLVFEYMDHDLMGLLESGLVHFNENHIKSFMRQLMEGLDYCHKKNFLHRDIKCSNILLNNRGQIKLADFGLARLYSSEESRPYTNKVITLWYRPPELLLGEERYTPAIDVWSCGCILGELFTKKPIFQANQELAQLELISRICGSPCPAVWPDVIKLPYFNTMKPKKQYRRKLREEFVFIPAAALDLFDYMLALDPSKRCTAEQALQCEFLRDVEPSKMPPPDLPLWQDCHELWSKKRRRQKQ
T3 sequence (Q16531 2-1140, further chain): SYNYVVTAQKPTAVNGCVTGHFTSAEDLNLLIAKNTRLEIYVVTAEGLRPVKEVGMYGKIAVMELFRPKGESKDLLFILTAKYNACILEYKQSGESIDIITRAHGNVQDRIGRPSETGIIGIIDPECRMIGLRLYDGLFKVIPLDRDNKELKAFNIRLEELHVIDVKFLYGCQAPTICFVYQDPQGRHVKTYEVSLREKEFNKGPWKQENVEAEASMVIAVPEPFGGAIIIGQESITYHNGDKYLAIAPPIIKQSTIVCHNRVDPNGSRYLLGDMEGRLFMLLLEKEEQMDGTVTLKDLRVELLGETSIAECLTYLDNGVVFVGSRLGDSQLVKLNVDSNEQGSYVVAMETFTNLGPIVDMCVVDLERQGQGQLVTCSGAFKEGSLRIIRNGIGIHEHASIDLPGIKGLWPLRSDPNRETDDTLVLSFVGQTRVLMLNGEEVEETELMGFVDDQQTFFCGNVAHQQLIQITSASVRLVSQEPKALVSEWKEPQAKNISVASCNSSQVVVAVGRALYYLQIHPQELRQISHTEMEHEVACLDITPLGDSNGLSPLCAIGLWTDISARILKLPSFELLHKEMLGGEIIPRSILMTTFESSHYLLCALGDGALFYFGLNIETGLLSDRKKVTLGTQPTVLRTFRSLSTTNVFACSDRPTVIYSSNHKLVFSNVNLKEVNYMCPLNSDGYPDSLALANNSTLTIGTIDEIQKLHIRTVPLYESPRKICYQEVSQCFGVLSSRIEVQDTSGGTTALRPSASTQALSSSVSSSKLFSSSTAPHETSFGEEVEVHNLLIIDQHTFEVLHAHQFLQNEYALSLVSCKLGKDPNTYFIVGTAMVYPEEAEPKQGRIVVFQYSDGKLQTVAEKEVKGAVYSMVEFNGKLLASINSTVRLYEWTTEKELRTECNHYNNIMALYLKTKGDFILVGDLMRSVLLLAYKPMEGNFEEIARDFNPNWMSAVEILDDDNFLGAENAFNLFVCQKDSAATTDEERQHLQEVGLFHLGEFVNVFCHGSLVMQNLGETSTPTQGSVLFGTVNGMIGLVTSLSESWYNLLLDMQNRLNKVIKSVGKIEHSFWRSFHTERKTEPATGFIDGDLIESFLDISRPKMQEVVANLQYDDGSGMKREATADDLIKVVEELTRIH
T1 sequence (Q9NYV4 715-1052, stated change not applied): as the sequence (Q9NYV4 715-1052 G731R limits assumed) above, with R17G counted along it
T1 sequence (O75909 11-267 partner limits assumed): as the sequence (O75909 11-267 partner limits assumed) above
T1 sequence (Q16531 whole entry partner, the tested form may be a part): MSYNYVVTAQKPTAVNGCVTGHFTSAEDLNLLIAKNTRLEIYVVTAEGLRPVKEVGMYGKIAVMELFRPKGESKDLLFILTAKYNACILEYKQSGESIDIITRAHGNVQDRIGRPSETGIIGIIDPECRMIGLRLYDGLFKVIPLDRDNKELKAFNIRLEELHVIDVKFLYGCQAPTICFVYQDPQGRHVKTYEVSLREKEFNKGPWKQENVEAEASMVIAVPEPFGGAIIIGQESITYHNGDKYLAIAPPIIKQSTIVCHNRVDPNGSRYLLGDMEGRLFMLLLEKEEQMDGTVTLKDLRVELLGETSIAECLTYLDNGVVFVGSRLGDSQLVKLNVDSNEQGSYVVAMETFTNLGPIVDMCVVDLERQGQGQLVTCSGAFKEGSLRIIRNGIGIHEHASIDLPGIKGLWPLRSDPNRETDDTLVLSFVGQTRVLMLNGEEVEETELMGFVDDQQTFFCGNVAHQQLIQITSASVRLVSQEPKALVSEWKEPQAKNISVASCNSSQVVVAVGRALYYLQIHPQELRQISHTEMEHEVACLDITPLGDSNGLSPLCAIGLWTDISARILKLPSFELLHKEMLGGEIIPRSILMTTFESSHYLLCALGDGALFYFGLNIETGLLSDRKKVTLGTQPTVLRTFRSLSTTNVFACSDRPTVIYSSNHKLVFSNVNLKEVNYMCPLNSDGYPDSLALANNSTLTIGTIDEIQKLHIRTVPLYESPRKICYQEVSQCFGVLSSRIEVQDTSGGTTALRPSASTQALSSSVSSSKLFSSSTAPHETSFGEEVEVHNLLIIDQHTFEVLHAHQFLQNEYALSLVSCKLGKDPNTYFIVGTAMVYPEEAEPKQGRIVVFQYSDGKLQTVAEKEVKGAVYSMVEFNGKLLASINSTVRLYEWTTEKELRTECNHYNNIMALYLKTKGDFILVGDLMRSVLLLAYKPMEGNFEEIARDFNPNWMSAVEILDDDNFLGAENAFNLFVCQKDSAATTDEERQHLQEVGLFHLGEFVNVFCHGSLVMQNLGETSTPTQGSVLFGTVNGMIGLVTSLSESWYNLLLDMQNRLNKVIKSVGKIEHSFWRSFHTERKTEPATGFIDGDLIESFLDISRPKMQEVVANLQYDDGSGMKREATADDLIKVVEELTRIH

Q: Which “complex formation of DDB1 with CDK12KD/CCNKΔC (pulldown)” value (FLAG-DDB1/CDK12KD/CCNKΔC) does the source give for `Cc1cccc(Nc2nc(CC(=O)Nc3ncc(C)s3)cs2)n1` [HQ461, 2-(2-((6-methylpyridin-2-yl)amino)thiazol-4-yl)-N-(5-methylthiazol-2-yl)acetamide] here?
A: The value was “near-stoichiometric complex”.

Q: And the IC50 [1]?
A: Its IC50 is 3.6 µM.

Q: And the AlphaScreen ([2]; HQ461 2.22e-6 M)?
A: Its AlphaScreen is 1045 and 1023 and 975.

Q: What about the AlphaScreen ([2]; HQ461 6.67e-6 M) of the same compound?
A: The AlphaScreen was 1107 and 1087 and 1018.

Q: And the AlphaScreen ([2]; HQ461 2e-5 M)?
A: The AlphaScreen was 1057 and 1369 and 1206.

Q: What about the AlphaScreen ([2]; HQ461 2.47E-07 M) of the same compound?
A: Its AlphaScreen is 1123 and 959 and 996.

Q: What about the AlphaScreen ([2]; HQ461 2.74E-08 M) of the same compound?
A: The AlphaScreen was 1124 and 1117 and 796.

Q: And the AlphaScreen ([2]; HQ461 7.41E-07 M)?
A: The AlphaScreen was 1008 and 1006 and 1085.

Q: What about the AlphaScreen ([2]; HQ461 8.23E-08 M) of the same compound?
A: The AlphaScreen was 1162 and 1262 and 828.

Q: What about the “complex formation with DDB1, G731R mutant” value ([2]; even with 20 µM of HQ461) of the same compound?
A: Its value is “did not form a complex with DDB1”.

Q: And the “CCNK degradation with co-expressed wild-type CDK13 kinase domain” value [3]?
A: Its value is “sufficient for mediating HQ461-dependent degradation of CCNK”.
